Results reported in article PMC9455983 (International Journal of Molecular Sciences, 2022).
“And” between values parts separate entries of the source, which are not always exact repeats. Equal entries are not always repeated. Where two headings read alike, the source gives them in different places.

Columns and labels:
[1] = target: T1, delta-opioid receptor (DOR) (Rattus norvegicus, UniProt P33533); assay: DOR radioligand competition binding assay ([3H]-DPDPE); conditions: Delta screening results
T1 construct: Rat cortices were homogenized using 50 mM Tris, pH 7.4, 10 mM MgCl2-6H2O, 200 µM PMSF; from tissue; host or cells: rat cortex membranes
Description: DOR binding assay: Rat cortices were homogenized using 50 mM Tris, pH 7.4, 10 mM MgCl2-6H2O, 200 µM PMSF, centrifuged and incubated as above. Each assay tube contained 2 nM [^3H]-DPDPE. Assay tubes were incubated for 2.5 h at 25 °C. Unlabeled DPDPE was used as a competitor to generate a standard curve and determine nonspecific binding.
(§1) All three binding assays were terminated by filtration through GF/B filters, soaked in 5 mg/mL bovine serum albumin, 50 mM Tris, pH 7.4, on a Tomtec Mach II Harvester 96. The filters were subsequently washed with 6 mL of assay buffer. Bound radioactivity was counted on a Wallac Betaplate Liquid Scintillation Counter. Experiments were conducted using two replicates and repeated twice. Values in Scheme 2 represent the mean ± SD of two experiments with two replicates in each test.

[2] = target: T2, mu-opioid receptor (MOR) (Rattus norvegicus, UniProt P33535); assay: MOR radioligand competition binding assay ([3H]-DAMGO); conditions: Mu screening results
T2 construct: Rat cortices were homogenized using 50 mM Tris, pH 7.4, and centrifuged at 16,500 rpm for 10 min; from tissue; host or cells: rat cortex membranes
Description: MOR binding assay: Rat cortices were homogenized using 50 mM Tris, pH 7.4, and centrifuged at 16,500 rpm for 10 min. The pellets were resuspended in fresh buffer and incubated at 37 °C for 30 min. Following incubation, the suspensions were centrifuged as before, the resulting pellets were resuspended in 100 volumes of 50 mM Tris, pH 7.4 plus 2 mg/mL bovine serum and the suspensions combined. Each assay tube contained 0.5 mL of membrane suspension, 2 nM [^3H]-DAMGO, and 0.02 mg/mL mixture in a total volume of 0.65 mL [13, 45, 53, 55].
as §1

[3] = target: T3, kappa-opioid receptor (KOR) (Cavia porcellus, UniProt P41144); assay: KOR radioligand competition binding assay ([3H]U69,593); design: species or system guinea pig; conditions: Kappa screening results
T3 construct: Guinea pig cortices and cerebella were homogenized using 50 mM Tris, pH 7.4; from tissue; host or cells: guinea pig cortex and cerebellum membranes
Description: KOR binding assay: Guinea pig cortices and cerebella were homogenized using 50 mM Tris, pH 7.4, 10 mM MgCl2-6H2O, […] centrifuged and incubated as above. Each assay tube contained 2 nM [^3H]U69,593. Assay tubes were incubated for 2 h at 25 °C. Unlabeled U50,488 was used as a competitor to generate a standard curve and determine nonspecific binding.
as §1

[4] = first Ki column, unit not printed (apparently M), read-out: Ki (first column)
[5] = mean of both Ki, unit inferred, read-out: MEAN (Ki)
[6] = mean of two experiments, read-out: Ki
[7] = second Ki column, unit not printed (apparently M), read-out: Ki (second column)
[8] = experiment 1, unit inferred, read-out: Ki (Exp 1)
[9] = experiment 2, unit inferred, read-out: Ki (Exp 2)
[10] = mean of Exp 1 and Exp 2, unit inferred, read-out: MEAN (Ki)

Row | Compound | Ki [1, 4] [µM] | Ki [1, 5] [µM] | Ki [1, 6] [µM] | Ki [1, 7] [µM] | Ki [2, 8] [µM] | Ki [2, 9] [µM] | Ki [2, 10] [µM] | Ki [2, 6] [µM] | Ki [3, 8] [µM] | Ki [3, 9] [µM] | Ki [3, 10] [µM] | Ki [3, 6]
1 | N=C1NC[C@H](Cc2ccccc2)N1C[C@H](Cc1ccccc1)N1C[C@H](Cc2ccc(O)cc2)NC1=N [1968-2] | 6.92 | 8.1 | 8.1 | 9.28 | 0.135 | 0.142 | 0.139 | 0.139 | 5.36 | 5.57 | 5.46 | 5.46 µM
2 | CC(C)C[C@H]1CN([C@@H](Cc2ccccc2)CN2C(=N)NC[C@@H]2Cc2ccccc2)C(=N)N1 [1968-3] | 6.37 | 6.66 | 6.66 | 6.95 | 2.56 | 2.63 | 2.59 | 2.59 | 4.51 | 4.84 | 4.67 | 4.67 µM
3 | N=C1NC[C@H](Cc2ccccc2)N1C[C@H](Cc1ccc(O)cc1)N1C[C@H](Cc2ccccc2)NC1=N [1968-5] | 6.4 | 9.23 | 9.23 | 12.1 | 0.925 | 0.671 | 0.798 | 0.798 | 3.95 | 3.73 | 3.84 | 3.84 µM
4 | N=C1NC[C@H](Cc2ccccc2)N1C[C@H](Cc1ccc(O)cc1)N1C[C@H](Cc2ccc(O)cc2)NC1=N [1968-6] | 4.88 | 4.98 | 4.98 | 5.09 | 0.0845 | 0.0672 | 0.0758 | 0.076 | 5.35 | 3.43 | 4.39 | 4.39 µM
5 | CC(C)C[C@@H](CN1C(=N)NC[C@@H]1Cc1ccccc1)N1C[C@H](Cc2ccccc2)NC1=N [1968-9] | 9.83 | 7.82 | 7.82 | 5.81 | 0.848 | 0.955 | 0.901 | 0.901 | 11.4 | 10.9 | 11.1 | 11.1 µM
6 | CC(C)C[C@@H](CN1C(=N)NC[C@@H]1Cc1ccccc1)N1C[C@H](Cc2ccc(O)cc2)NC1=N [1968-10] | 2.23 | 2.21 | 2.21 | 2.19 | 0.199 | 0.281 | 0.24 | 0.24 | 5.47 | 4.84 | 5.16 | 5.16 µM
7 | CC(C)C[C@H]1CN([C@@H](CC(C)C)CN2C(=N)NC[C@@H]2Cc2ccccc2)C(=N)N1 [1968-11] | 26.4 | 58.6 | 58.6 | 90.9 | 2.98 | 3.04 | 3.01 | 3.01 | 13.9 | 8.93 | 11.4 | 11.4 µM
8 | Cc1cc(O)cc(C)c1C[C@H]1CN([C@@H](CC(C)C)CN2C(=N)NC[C@@H]2Cc2ccccc2)C(=N)N1 [1968-12] | 1.95 | 1.85 | 1.85 | 1.75 | 0.0674 | 0.0659 | 0.0666 | 0.067 | 1.03 | 1.29 | 1.16 | 1.16 µM
9 | Cc1cc(O)cc(C)c1C[C@@H](CN1C(=N)NC[C@@H]1Cc1ccccc1)N1C[C@H](CC(C)C)NC1=N [1968-15] | 1.07 | 1.25 | 1.25 | 1.44 | 0.35 | 0.26 | 0.305 | 0.305 | 0.568 | 0.504 | 0.536 | 0.536 µM
10 | N=C1NC[C@H](Cc2ccc(O)cc2)N1C[C@H](Cc1ccccc1)N1C[C@H](Cc2ccccc2)NC1=N [1968-17] | 7.93 | 7.1 | 7.1 | 6.27 | 1.07 | 0.741 | 0.907 | 0.907 | 6.27 | 6.84 | 6.55 | 6.55 µM
11 | N=C1NC[C@H](Cc2ccc(O)cc2)N1C[C@H](Cc1ccccc1)N1C[C@H](Cc2ccc(O)cc2)NC1=N [1968-18] | 7.57 | 8.08 | 8.08 | 8.58 | 0.403 | 0.401 | 0.402 | 0.402 | 3.47 | 3.63 | 3.55 | 3.55 µM
12 | Cc1cc(O)cc(C)c1C[C@@H](CN1C(=N)NC[C@@H]1C)N1C[C@H](CC(C)C)NC1=N [1968-19] | 1.18 | 1.09 | 1.1 | 1.01 | 0.0159 | 0.0142 | 0.015 | 0.015 | 0.0893 | 0.0438 | 0.0665 | 0.0665 µM and 0.066 µM
13 | Cc1cc(O)cc(C)c1C[C@H]1CN([C@@H](Cc2ccccc2)CN2C(=N)NC[C@@H]2Cc2ccc(O)cc2)C(=N)N1 [1968-20] | 0.877 | 0.853 | 0.853 | 0.829 | 0.0747 | 0.0803 | 0.0775 | 0.077 | 0.977 | 0.659 | 0.818 | 0.818 µM
14 | N=C1NC[C@H](Cc2ccc(O)cc2)N1C[C@H](Cc1ccc(O)cc1)N1C[C@H](Cc2ccccc2)NC1=N [1968-21] | 7.83 | 7.73 | 7.73 | 7.63 | 0.175 | 0.199 | 0.187 | 0.187 | 3.59 | 3.29 | 3.44 | 3.44 µM
15 | CC(C)C[C@H]1CN([C@@H](Cc2ccc(O)cc2)CN2C(=N)NC[C@@H]2Cc2ccc(O)cc2)C(=N)N1 [1968-23] | – | – | – | – | 2.35 | 2.27 | 2.31 | 2.31 | 9.52 | 7.36 | 8.44 | 8.44 µM
16 | CC(C)C[C@@H](CN1C(=N)NC[C@@H]1Cc1ccc(O)cc1)N1C[C@H](Cc2ccccc2)NC1=N [1968-25] | 25.4 | 30.5 | 30.5 | 35.7 | 0.707 | 0.725 | 0.716 | 0.716 | 6.55 | 3.32 | 4.93 | 4.93 µM
17 | CC(C)C[C@@H](CN1C(=N)NC[C@@H]1Cc1ccc(O)cc1)N1C[C@H](Cc2ccc(O)cc2)NC1=N [1968-26] | 7.48 | 8.07 | 8.07 | 8.67 | 0.781 | 0.751 | 0.766 | 0.766 | 15.8 | 13.2 | 14.5 | 14.5 µM
18 | CC(C)C[C@H]1CN([C@@H](CC(C)C)CN2C(=N)NC[C@@H]2Cc2ccc(O)cc2)C(=N)N1 [1968-27] | – | – | – | – | 0.96 | 1 | 0.981 | 0.981 | 4.24 | 4.84 | 4.54 | 4.54 µM
19 | Cc1cc(O)cc(C)c1C[C@H]1CN([C@@H](CC(C)C)CN2C(=N)NC[C@@H]2Cc2ccc(O)cc2)C(=N)N1 [1968-28] | 4.8 | 5.07 | 5.07 | 5.34 | 0.118 | 0.119 | 0.118 | 0.118 | 0.84 | 1.4 | 1.12 | 1.12 µM
20 | CC(C)C[C@H]1CN([C@@H](Cc2ccccc2)CN2C(=N)NC[C@@H]2C)C(=N)N1 [1968-35] | – | – | – | – | 4.45 | 4.58 | 4.51 | 4.51 | 34.1 | 52.6 | 43.3 | 43.3 µM
